Values of other authors in patent US20230083525A1, “NOVEL COMPOSITION FOR REDUCING STRESS DISORDERS” (SOCIETE DES PRODUITS NESTLE S.A., priority 2019, published 2023).

Conditions: value used to convert plasma AUC to production in the colon

Row | systemic availability | Structure (SMILES)
1 | 36% | CC(=O)O [acetate]
2 | 2% | CCCC(=O)O [butyrate]
